What was measured:
human CYP11B2 = biological target: T1, human CYP11B2 (Homo sapiens, UniProt P19099); assay: G-402 cellular enzyme assay, human CYP11B2 (aldosterone release, HTRF); format: cell-based; settings: G-402 cells, 1 μM Deoxycorticosterone
T1 construct: expressed in transfected cells
T1 sequence (P19099 25-503): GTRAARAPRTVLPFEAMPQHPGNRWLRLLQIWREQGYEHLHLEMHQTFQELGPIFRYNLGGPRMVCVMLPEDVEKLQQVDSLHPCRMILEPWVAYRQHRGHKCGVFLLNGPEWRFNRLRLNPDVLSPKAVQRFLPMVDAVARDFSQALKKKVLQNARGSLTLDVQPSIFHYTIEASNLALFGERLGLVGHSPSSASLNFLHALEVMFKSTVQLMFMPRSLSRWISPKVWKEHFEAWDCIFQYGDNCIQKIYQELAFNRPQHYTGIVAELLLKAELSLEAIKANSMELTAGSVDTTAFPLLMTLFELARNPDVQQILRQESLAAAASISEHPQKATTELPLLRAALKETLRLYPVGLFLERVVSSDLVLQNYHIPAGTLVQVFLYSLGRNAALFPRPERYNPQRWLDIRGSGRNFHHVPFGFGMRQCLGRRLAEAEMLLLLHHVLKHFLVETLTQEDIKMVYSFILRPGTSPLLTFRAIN
In short: (§1)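 Steroid output from supernatants, quantified by HTRF as cortisol for CYP11B1 or aldosterone for CYP11B2, gave EC50 values by least-squares 4-parameter MMF fitting against inhibitor concentration. Stably transfected G-402 cells carrying the human enzyme received 1 μM deoxycortisol or 1 μM deoxycorticosterone respectively, 16 h, DMEM/F12 with 2.5% charcoal-stripped FCS.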

human CYP11B1 = biological target: T2, human CYP11B1 (Homo sapiens, UniProt P15538); assay: G-402 cellular enzyme assay, human CYP11B1 (cortisol release, HTRF); format: cell-based; settings: G-402 cells, 1 μM Deoxycortisol
T2 construct: expressed in transfected cells
T2 sequence (P15538 25-503): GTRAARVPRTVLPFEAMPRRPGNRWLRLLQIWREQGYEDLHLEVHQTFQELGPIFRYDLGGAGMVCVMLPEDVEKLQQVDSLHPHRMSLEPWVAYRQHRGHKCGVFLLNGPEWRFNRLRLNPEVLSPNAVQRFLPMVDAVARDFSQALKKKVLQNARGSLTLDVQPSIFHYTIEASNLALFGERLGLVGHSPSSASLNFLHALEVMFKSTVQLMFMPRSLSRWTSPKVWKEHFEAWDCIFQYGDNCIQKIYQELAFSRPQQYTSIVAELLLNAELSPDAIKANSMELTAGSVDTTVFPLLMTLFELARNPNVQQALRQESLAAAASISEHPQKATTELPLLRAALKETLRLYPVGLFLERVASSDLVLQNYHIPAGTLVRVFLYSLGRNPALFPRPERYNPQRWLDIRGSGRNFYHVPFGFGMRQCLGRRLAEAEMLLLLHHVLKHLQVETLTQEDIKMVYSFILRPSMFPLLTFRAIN
In short: as §1

| Compound | EC50 (human CYP11B2) [nM] | EC50 (human CYP11B1) [nM] |
| --- | --- | --- |
| COc1ccc2c(n1)C(C)(C)N(c1cncc(CNc3cc[nH]n3)c1)C2=O [Example 384, 2-Methoxy-7,7-dimethyl-6-{5-[(1H-pyrazol-3-ylamino)-methyl]-pyridin-3-yl}-6,7-dihydro-pyrrolo[3,4-b]pyridin-5-one] | 24 | 3160 |
| O=C1c2ccc(Cl)cc2C2(CC2)N1c1cncc(CNc2cc[nH]n2)c1 [Example 386, 6′-Chloro-2′-{5-[(1H-pyrazol-3-ylamino)methyl]pyridin-3-yl}spiro [cyclopropane-1,1′-isoindol]-3′(2′H)-one] | 6 | 418 |
| CCS(=O)(=O)NCc1cncc(N2C(=O)c3ccc(F)cc3C2(C)C)c1 [Example 388, Ethanesulfonic acid [5-(6-fluoro-1,1-dimethyl-3-oxo-1,3-dihydro-isoindol-2-yl)-pyridin-3-ylmethyl]-amide] | 272 | 3970 |
| CCS(=O)(=O)NCc1cncc(N2C(=O)c3ccc(C#N)cc3C2(C)C)c1 [Example 389, Ethanesulfonic acid [5-(6-cyano-1,1-dimethyl-3-oxo-1,3-dihydro-isoindol-2-yl)-pyridin-3-ylmethyl]-amide] | 115 | 2950 |
| CCS(=O)(=O)NCc1cncc(N2C(=O)c3ccc(F)cc3C23CC3)c1 [Example 393, N-{[5-(6′-Fluoro-3′-oxospiro [cyclopropane-1,1′-isoindol]-2′(3′H)-yl)pyridin-3-yl]methyl} ethane-sulfonamide] | 265 | 8430 |
| CCS(=O)(=O)N(C)Cc1cncc(N2C(=O)c3ccc(F)cc3C23CC3)c1 [Example 394, N-{[5-(6′-Fluoro-3′-oxospiro [cyclopropane-1,1′-isoindol]-2′(3′H)-yl)pyridin-3-yl]methyl}-N-methylethane-sulfonamide] | 45.6 | 2920 |
| CCC(=O)NCc1cncc(N2C(=O)c3ccc(Cl)cc3C23CC3)c1 [Example 396, N-{[5-(6′-Chloro-3′-oxospiro [cyclopropane-1,1′-isoindol]-2′(3′H)-yl)pyridin-3-yl]methyl} propanamide] | 207 | 5250 |
| CCC(=O)NCc1cncc(N2C(=O)c3ccc(F)cc3C2(C)C)c1 [Example 398, N-[5-(6-Fluoro-1,1-dimethyl-3-oxo-1,3-dihydro-isoindol-2-yl)-pyridin-3-ylmethyl]-propionamide] | 281 | 2300 |
| CS(=O)(=O)NCc1cncc(N2C(=O)c3cc(F)ccc3C23CC3)c1 [Example 401, N-{[5-(5′-Fluoro-3′-oxospiro [cyclopropane-1,1′-isoindol]-2′(3′H)-yl)pyridin-3-yl]methyl} methane-sulfonamide] | 360 | 9100 |
| CC1(C)c2cc(C#N)ccc2C(=O)N1c1cncc(CNS(C)(=O)=O)c1 [Example 402, N-[5-(6-Cyano-1,1-dimethyl-3-oxo-1,3-dihydro-isoindol-2-yl)-pyridin-3-ylmethyl]-methane-sulfonamide] | 34.2 | 2210 |
| CC1(C)c2cc(F)ccc2C(=O)N1c1cncc(CNS(C)(=O)=O)c1 [Example 403, N-[5-(6-Fluoro-1,1-dimethyl-3-oxo-1,3-dihydro-isoindol-2-yl)-pyridin-3-ylmethyl]-methane-sulfonamide] | 31.7 | 1930 |
| CS(=O)(=O)NCc1cncc(N2C(=O)c3ccc(F)cc3C23CC3)c1 [Example 404, N-{[5-(6′-Fluoro-3′-oxospiro [cyclopropane-1,1′-isoindol]-2′(3′H)-yl)pyridin-3-yl]methyl} methane-sulfonamide] | 298 | 5480 |
| CC1(C)c2ccc(F)cc2C(=O)N1c1cncc(CNS(C)(=O)=O)c1 [Example 406, N-[5-(5-Fluoro-1,1-dimethyl-3-oxo-1,3-dihydro-isoindol-2-yl)-pyridin-3-ylmethyl]-methane-sulfonamide] | 165 | 3150 |

Other lines, results leading:

| EC50 (human CYP11B2) [nM] | EC50 (human CYP11B1) [nM] | Compound |
| --- | --- | --- |
| 92.2 | 2840 | CCS(=O)(=O)NCc1cncc(N2C(=O)c3ccc(Cl)cc3C2(C)C)c1 [Example 387, Ethanesulfonic acid [5-(6-chloro-1,1-dimethyl-3-oxo-1,3-dihydro-isoindol-2-yl)-pyridin-3-ylmethyl]-amide] |
| 29.7 | 1450 | CC1(C)c2cc(Cl)ccc2C(=O)N1c1cncc(CNS(C)(=O)=O)c1 [Example 391, N-[5-(6-Chloro-1,1-dimethyl-3-oxo-1,3-dihydro-isoindol-2-yl)-pyridin-3-ylmethyl]-methane-sulfonamide] |
| 9.2 | 327 | CN(Cc1cncc(N2C(=O)c3ccc(Cl)cc3C2(C)C)c1)S(C)(=O)=O [Example 392, N-[5-(6-Chloro-1,1-dimethyl-3-oxo-1,3-dihydro-isoindol-2-yl)-pyridin-3-ylmethyl]-N-methyl-methane-sulfonamide] |
| 8 | 679 | CCS(=O)(=O)N(C)Cc1cncc(N2C(=O)c3ccc(Cl)cc3C2(C)C)c1 [Example 395, Ethanesulfonic acid [5-(6-chloro-1,1-dimethyl-3-oxo-1,3-dihydro-isoindol-2-yl)-pyridin-3-ylmethyl]-methyl-amide] |
| 282 | 7950 | CCC(=O)NCc1cncc(N2C(=O)c3ccc(Cl)cc3C2(C)C)c1 [Example 397, N-[5-(6-Chloro-1,1-dimethyl-3-oxo-1,3-dihydro-isoindol-2-yl)-pyridin-3-ylmethyl]-propionamide] |
| 58.9 | 2740 | CC(=O)NCc1cncc(N2C(=O)c3ccc(Cl)cc3C2(C)C)c1 [Example 400, N-[5-(6-Chloro-1,1-dimethyl-3-oxo-1,3-dihydro-isoindol-2-yl)-pyridin-3-ylmethyl]-acetamide] |
| 923 | 14300 | CC1(C)c2ccc(Cl)cc2C(=O)N1c1cncc(CNS(C)(=O)=O)c1 [Example 408, N-[5-(5-Chloro-1,1-dimethyl-3-oxo-1,3-dihydro-isoindol-2-yl)-pyridin-3-ylmethyl]-methane-sulfonamide] |
| 6.9 | 429 | CC1(C)c2cc(Cl)ccc2C(=O)N1c1cncc(CN2CCCS2(=O)=O)c1 [Example 409, 5-Chloro-2-[5-(1,1-dioxo-1λ6-isothiazolidin-2-ylmethyl)-pyridin-3-yl]-3,3-dimethyl-2,3-dihydro-isoindol-1-one] |
| 16.5 | 1730 | CC1(C)c2cc(Cl)ccc2C(=O)N1c1cncc(CN2CCCCC2=O)c1 [Example 410, 5-Chloro-3,3-dimethyl-2-[5-(2-oxo-piperidin-1-ylmethyl)-pyridin-3-yl]-2,3-dihydro-isoindol-1-one] |
| 19.6 | 772 | CC1(C)c2cc(Cl)ccc2C(=O)N1c1cncc(CN2CCNC2=O)c1 [Example 411, 5-Chloro-3,3-dimethyl-2-[5-(2-oxo-imidazolidin-1-ylmethyl)-pyridin-3-yl]-2,3-dihydro-isoindol-1-one] |
| 46.6 | 1670 | CC1(C)c2cc(Cl)ccc2C(=O)N1c1cncc(CN2CCOC2=O)c1 [Example 412, 5-Chloro-3,3-dimethyl-2-[5-(2-oxo-oxazolidin-3-ylmethyl)-pyridin-3-yl]-2,3-dihydro-isoindol-1-one] |
| 20.7 | 813 | CC1(C)c2cc(Cl)ccc2C(=O)N1c1cncc(CN2CCCC2=O)c1 [Example 413, 5-Chloro-3,3-dimethyl-2-[5-(2-oxo-pyrrolidin-1-ylmethyl)-pyridin-3-yl]-2,3-dihydro-isoindol-1-one] |
| 30.2 | 2040 | CN1CCN(Cc2cncc(N3C(=O)c4ccc(Cl)cc4C3(C)C)c2)C1=O [Example 414, 5-Chloro-3,3-dimethyl-2-[5-(3-methyl-2-oxo-imidazolidin-1-ylmethyl)-pyridin-3-yl]-2,3-dihydro-isoindol-1-one] |
| 5.5 | 484 | CC1(C)c2cc(Cl)ccc2C(=O)N1c1cncc(CN2CCCCS2(=O)=O)c1 [Example 415, 5-Chloro-2-[5-(1,1-dioxo-1λ6-[1,2]thiazinan-2-ylmethyl)-pyridin-3-yl]-3,3-dimethyl-2,3-dihydro-isoindol-1-one] |
| 6 | 723 | CC(C)N1CCN(Cc2cncc(N3C(=O)c4ccc(Cl)cc4C3(C)C)c2)C1=O [Example 416, 5-Chloro-2-[5-(3-isopropyl-2-oxo-imidazolidin-1-ylmethyl)-pyridin-3-yl]-3,3-dimethyl-2,3-dihydro-isoindol-1-one] |

From patent publication US9133158B2, “Bicyclic dihydroisoquinoline-1-one derivatives” (Hoffmann-La Roche Inc., priority 2011, dated 2015)
